Test results taken from paper PMC5244392, “Interspecies cathelicidin comparison reveals divergence in antimicrobial activity, TLR modulation, chemokine induction and regulation of phagocytosis” (Scientific Reports, 2017).

Tests used:
[1] = tested on: methicillin resistant Staphylococcus aureus (MRSA) (WKZ-2, human clinical isolate); assay: Bacterial growth delay (Bioscreen C), MRSA; type: cell-based; details: for Cmax, MRSA, DMEM / Summary class, antimicrobial activity S. aureus DMEM / Max: hours growth delay with 20 μM cathelicidin, MRSA, DMEM: DMEM + FCS; for Cmax, MRSA, DMEM / Cmax, MRSA, MHB: 1 × 10^6 CFU/ml, peptide 0.31-20 μM, 16 h, 37 °C, — = no Cmax reached up to 20 μM; for Cmax, MRSA, DMEM / Cmax, MRSA, MHB / Max: hours growth delay with 20 μM cathelicidin, MRSA, DMEM / Max: hours growth delay with 20 μM cathelicidin, MRSA, MHB: N = 4; for Summary class, antimicrobial activity S. aureus DMEM / Summary class, antimicrobial activity S. aureus MHB: MRSA, − is not defined in the key; for Max: hours growth delay with 20 μM cathelicidin, MRSA, DMEM / Max: hours growth delay with 20 μM cathelicidin, MRSA, MHB: 20 μM peptide, given if no Cmax was reached
Protocol: (§1) E. coli O78 (Zoetis Animal Health, Kalamazoo, MI, USA), E. coli ATCC 25922, Staphylococcus aureus ATCC 29213, and methicillin resistant Staphylococcus aureus (MRSA) (WKZ-2, human clinical isolate) were grown overnight from a glycerol stock in Mueller Hinton Broth (MHB) (Becton Dickinson, USA). Before use, bacteria were grown to mid-log phase in MHB for 2 hours at 37 °C, 200 RPM. Murine RAW264.7 macrophages (ATCC-TIB-71) were obtained from the American Type Culture Collection (ATCC, Manassas, VA, USA) and cultured in DMEM (41966-029; Thermo Fisher Scientific, Waltham, MA, USA) supplemented with 10% FCS (Bodinco B.V., Alkmaar, the Netherlands) (DMEM + FCS) at 37 °C, 5.0% CO2. Cells were seeded in 96-wells plates at 5 × 10^5 cells/ml or 12-wells plates at 2 × 10^5/ml for adherence overnight prior to stimulation.
(§2) Peptides (0.63 to 40 μM) and bacteria mid-log cultures (2 * 10^6 CFU/ml) were prepared in MHB or DMEM + FCS and mixed (100 μl peptide + 100 μl bacterial culture) in a Bioscreen C analyzer plate (Oy Growth Curves Ab Ltd, Helsingfors, Finland). Plates were placed in a Bioscreen C analyzer (Oy Growth Curves Ab Ltd) and bacteria were grown for 16 h at 37 °C with 200 RPM. The OD was measured every 15 minutes using a wideband filter (450–580 nm) to measure bacterial growth. The time needed grow above an OD of 0.6 was determined for all concentrations. Activity of peptides was expressed as the Cmax, the concentration of peptide required to delay the growth for 10 h compared to the control. Or, for peptides with low activity (no Cmax), activity was expressed as the hours of growth delay at 20 μM. Unlike the classic MIC and MBC determination used in microbiology, this method also enabled comparison of peptides with low antibacterial activity.
(§3) Twelve cathelicidins from 6 different species were selected for this study, namely: human LL-37, murine CRAMP, dog K9CATH, equine CATH (eCATH)-1, -2 and -3, chicken CATH (chCATH)-1, -2, and -3, porcine PMAP-23 and -36 and PR-39 (Table 1). Antimicrobial activity against E. coli and MRSA was directly compared under standardized conditions in MHB, a medium optimized for bacterial growth. Bacterial growth delay was defined as the delay in hours for peptide-treated bacteria to reach an OD of 0.6, compared to the non-treated control. Cmax is the minimal concentration needed to delay growth for a minimum of 10 hours compared to the non-treated control (Table 1 and Fig. 1A).
(§4) Figure 1 Antibacterial activity of cathelicidins. E. coli and MRSA (1 × 10^6 CFU/ml) of were grown in MHB or DMEM ± FCS for 16 hours under constant shaking (200 RPM). Every 15 minutes the OD was measured. Growth delay was defined as the time needed for peptide-treated bacteria to grow above an OD of 0.6 compared to the control bacteria (no peptide added) (A). Cathelicidins were tested in different concentrations (0.31 μM, 0.63 μM, 1.25 μM, 2.5 μM, 5 μM, 10 μM, and 20 μM) to determine the antimicrobial activity in MHB against E. coli (B) or MRSA (C) and in more physiological medium DMEM + FCS (D,E). Results are presented as average +/− SEM (N = 4).

E. coli O78 = assay: Bacterial growth delay (Bioscreen C), E. coli; type: cell-based, Escherichia coli; details: for Cmax, E. coli, DMEM: DMEM + FCS (10%); for Cmax, E. coli, DMEM / Cmax: cathelicidin concentration resulting in a delay in bacterial growth with minimal 10 hours, E. coli, MHB: 1 × 10^6 CFU/ml, peptide 0.31-20 μM, 16 h, 37 °C, — = no Cmax reached up to 20 μM; for Cmax, E. coli, DMEM / Cmax: cathelicidin concentration resulting in a delay in bacterial growth with minimal 10 hours, E. coli, MHB / Max: hours growth delay with 20 μM cathelicidin, E. coli, DMEM / Max: hours growth delay with 20 μM cathelicidin, E. coli, MHB: N = 4; for Delay of the growth of E. coli / Summary class, antimicrobial activity E. coli DMEM / Max: hours growth delay with 20 μM cathelicidin, E. coli, DMEM: DMEM + FCS; for Delay of the growth of E. coli: peptide concentration not given (0.31-20 μM tested); for Summary class, antimicrobial activity E. coli DMEM / Summary class, antimicrobial activity E. coli MHB: − is not defined in the key; for Cmax: cathelicidin concentration resulting in a delay in bacterial growth with minimal 10 hours, E. coli, MHB: 200 RPM; for Cmax: cathelicidin concentration resulting in a delay in bacterial growth with minimal 10 hours, E. coli, MHB / Max: hours growth delay with 20 μM cathelicidin, E. coli, MHB: time to OD 0.6 vs control; for Max: hours growth delay with 20 μM cathelicidin, E. coli, DMEM / Max: hours growth delay with 20 μM cathelicidin, E. coli, MHB: 20 μM peptide, given if no Cmax was reached
Protocol: as §1, §2, §3, §4

Substance: Ac-GRFRRLRKKTRKRLKKIGKVLKWIPPIVGSIPLGCG [PMAP-36, porcine α-helical cathelicidin, N-acetylated, 36 residues, charge +13]
- Cmax, MRSA, DMEM [1]: 0.31 µM
- Summary class, antimicrobial activity S. aureus DMEM [1]: +++ (+++ = Cmax at ≤20 μM)
- Cmax, MRSA, MHB ([1]; MHB): 10 µM
- Summary class, antimicrobial activity S. aureus MHB ([1]; MHB): +++ (+++ = Cmax at ≤20 μM)
- Cmax, E. coli, DMEM (E. coli O78): 2.5 µM
- Delay of the growth of E. coli (E. coli O78): at least 7 hours
- Summary class, antimicrobial activity E. coli DMEM (E. coli O78): +++ (+++ = Cmax at ≤20 μM)
- Cmax: cathelicidin concentration resulting in a delay in bacterial growth with minimal 10 hours, E. coli, MHB (E. coli O78; MHB): 5 µM
- Summary class, antimicrobial activity E. coli MHB (E. coli O78; MHB): +++ (+++ = Cmax at ≤20 μM)

Substance: GLLRKGGEKIGEKLKKIGQKIKNFFQKLVPQPEQ [CRAMP, murine cathelicidin, 34 residues, charge +6]
- Max: hours growth delay with 20 μM cathelicidin, MRSA, DMEM [1]: 6.5 h
- Summary class, antimicrobial activity S. aureus DMEM [1]: + (+ = >4 hours inhibition at 20 μM)
- Max: hours growth delay with 20 μM cathelicidin, MRSA, MHB ([1]; MHB): 0.5 h
- Max: hours growth delay with 20 μM cathelicidin, E. coli, DMEM (E. coli O78): 2.5 h
- Max: hours growth delay with 20 μM cathelicidin, E. coli, MHB (E. coli O78; MHB): 9.0 h
- Summary class, antimicrobial activity E. coli MHB (E. coli O78; MHB): ++ (++ = >8 hours inhibition at 20 μM)

Substance: KRRHWFPLSFQEFLEQLRRFRDQLPFP [eCATH-2, equine CATH-2, 27 residues, charge +4]
- Max: hours growth delay with 20 μM cathelicidin, MRSA, DMEM [1]: 3.5 h
- Max: hours growth delay with 20 μM cathelicidin, MRSA, MHB ([1]; MHB): 1.5 h
- Max: hours growth delay with 20 μM cathelicidin, E. coli, DMEM (E. coli O78): 2.0 h
- Max: hours growth delay with 20 μM cathelicidin, E. coli, MHB (E. coli O78; MHB): 9.0 h
- Summary class, antimicrobial activity E. coli MHB (E. coli O78; MHB): ++ (++ = >8 hours inhibition at 20 μM)

Substance: RFGRFLRKIRRFRPKVTITIQGSARF-NH2 [chCATH-2, chicken CATH-2, C-terminal amide, 26 residues, charge +9]
- Cmax, MRSA, DMEM [1]: 0.31 µM
- Summary class, antimicrobial activity S. aureus DMEM [1]: +++ (+++ = Cmax at ≤20 μM)
- Cmax, MRSA, MHB ([1]; MHB): 2.5 µM
- Summary class, antimicrobial activity S. aureus MHB ([1]; MHB): +++ (+++ = Cmax at ≤20 μM)
- Cmax, E. coli, DMEM (E. coli O78): 10 µM
- Delay of the growth of E. coli (E. coli O78): at least 7 hours
- Summary class, antimicrobial activity E. coli DMEM (E. coli O78): +++ (+++ = Cmax at ≤20 μM)
- Cmax: cathelicidin concentration resulting in a delay in bacterial growth with minimal 10 hours, E. coli, MHB (E. coli O78; MHB): 5 µM
- Summary class, antimicrobial activity E. coli MHB (E. coli O78; MHB): +++ (+++ = Cmax at ≤20 μM)

Substance: RIIDLLWRVRRPQKPKFVTVWVR [PMAP-23, porcine α-helical cathelicidin, 23 residues, charge +6]
- Cmax, MRSA, DMEM [1]: 10 µM
- Summary class, antimicrobial activity S. aureus DMEM [1]: +++ (+++ = Cmax at ≤20 μM)
- Cmax, MRSA, MHB ([1]; MHB): 20 µM
- Summary class, antimicrobial activity S. aureus MHB ([1]; MHB): +++ (+++ = Cmax at ≤20 μM)
- Max: hours growth delay with 20 μM cathelicidin, E. coli, DMEM (E. coli O78): 3.5 h
- Max: hours growth delay with 20 μM cathelicidin, E. coli, MHB (E. coli O78; MHB): 9.5 h
- Summary class, antimicrobial activity E. coli MHB (E. coli O78; MHB): ++ (++ = >8 hours inhibition at 20 μM)

Substance: RLKELITTGGQKIGEKIRRIGQRIKDFFKNLQPREEKS [Peptide K9CATH, dog cathelicidin, 38 residues, charge +6]
- Max: hours growth delay with 20 μM cathelicidin, MRSA, DMEM [1]: 4.5 h
- Summary class, antimicrobial activity S. aureus DMEM [1]: + (+ = >4 hours inhibition at 20 μM)
- Max: hours growth delay with 20 μM cathelicidin, MRSA, MHB ([1]; MHB): 0.5 h
- Max: hours growth delay with 20 μM cathelicidin, E. coli, DMEM (E. coli O78): 1.5 h
- Activity against E. coli in MHB, in words (E. coli O78; MHB, peptide up to 20 μM): no or very little activity
- Max: hours growth delay with 20 μM cathelicidin, E. coli, MHB (E. coli O78; MHB): 3.0 h

Substance: RRRPRPPYLPRPRPPPFFPPRLPPRIPPGFPPRFPPRFP [PR-39, porcine proline-rich cathelicidin forming a polyproline helix, 39 residues, charge +10]
- Cmax, MRSA, DMEM [1]: 10 µM
- Summary class, antimicrobial activity S. aureus DMEM [1]: +++ (+++ = Cmax at ≤20 μM)
- Activity against MRSA in MHB, in words ([1]; MHB, peptide up to 20 μM): no effect
- Max: hours growth delay with 20 μM cathelicidin, MRSA, MHB ([1]; MHB): 0.5 h
- Max: hours growth delay with 20 μM cathelicidin, E. coli, DMEM (E. coli O78): 7.0 h
- Delay of the growth of E. coli (E. coli O78): at least 7 hours
- Summary class, antimicrobial activity E. coli DMEM (E. coli O78): + (+ = >4 hours inhibition at 20 μM)
- Cmax: cathelicidin concentration resulting in a delay in bacterial growth with minimal 10 hours, E. coli, MHB (E. coli O78; MHB): 20 µM
- Summary class, antimicrobial activity E. coli MHB (E. coli O78; MHB): +++ (+++ = Cmax at ≤20 μM)

Substance: RVKRFWPLVPVAINTVAAGINLYKAIRRK [chCATH-3, chicken CATH-3, 29 residues, charge +7]
- Cmax, MRSA, DMEM [1]: 0.31 µM
- Summary class, antimicrobial activity S. aureus DMEM [1]: +++ (+++ = Cmax at ≤20 μM)
- Cmax, MRSA, MHB ([1]; MHB): 5 µM
- Summary class, antimicrobial activity S. aureus MHB ([1]; MHB): +++ (+++ = Cmax at ≤20 μM)
- Max: hours growth delay with 20 μM cathelicidin, E. coli, DMEM (E. coli O78): 5.5 h
- Summary class, antimicrobial activity E. coli DMEM (E. coli O78): + (+ = >4 hours inhibition at 20 μM)
- Cmax: cathelicidin concentration resulting in a delay in bacterial growth with minimal 10 hours, E. coli, MHB (E. coli O78; MHB): 20 µM
- Summary class, antimicrobial activity E. coli MHB (E. coli O78; MHB): +++ (+++ = Cmax at ≤20 μM)
